# What was measured:
# [1] = target: M2 H+ channel, Singapore wild-type (Influenza A virus, UniProt P10920); assay type: cell-based, Influenza A (Singapore H2N2 isolate)
# [2] = target: influenza A virus M2 proton-selective ion channel, wild-type (Influenza A virus, UniProt P0DOF5); settings: cited from earlier work
# influenza A virus M2 proton-selective ion channel, wild-type, sequence (P0DOF5 whole entry, looked up): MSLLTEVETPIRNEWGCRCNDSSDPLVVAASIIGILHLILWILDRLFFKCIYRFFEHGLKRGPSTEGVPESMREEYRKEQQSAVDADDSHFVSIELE
# M2 H+ channel, Singapore wild-type, sequence (P10920 whole entry, looked up): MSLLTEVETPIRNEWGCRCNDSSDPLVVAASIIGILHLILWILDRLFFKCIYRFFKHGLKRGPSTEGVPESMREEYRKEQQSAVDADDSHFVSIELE
SMILES,"Ks (Monod coefficient, inhibitory constant) [1]",relief of growth inhibition by the channel from the Singapore strain [1],isochronic apparent inhibitory binding constant [2],Ks (dynamic range statement) [1],"activity (growth retardation relief, O.D.600) compared between the two drugs [1]",relief of growth retardation of bacteria expressing the M2 channel [1]
"NC12CC3CC(CC(C3)C1)C2 [amantadine, Amantadine]",140 nM,substantially relieved,16 µM,–,–,–
"CC(N)C12CC3CC(CC(C3)C1)C2 (centres unmarked) [rimantadine, Rimantadine]",15 nM,substantially relieved,–,15 nm,more pronounced than amantadine,significantly alleviate

# From patent publication US20130053277A1 (priority 2010, published 2013)
